Experimental data as given in ChEMBL document CHEMBL6177968, “Development of sulfamoylbenzamide-based capsid assembly modulators for hepatitis B virus capsid assembly” (Eur J Med Chem, 2025).

Key:
Hepatitis B virus [1] = test: Antiviral activity against HBV in human HepaRG cells assessed as reduction in viral replication; type: functional, organism-based
[2] = Clearance in male mouse at 5 mg/kg, iv; type: ADME, organism-based; details: in vivo
Hepatitis B virus [3] = test: Antiviral activity against HBV infected in human HepG2 cells expressing NTCP assessed as capsid level at 1 uM incubated for 6 days by Western blot analysis (reference value: 100 %); type: functional; details: time 6 day
Cytochrome P450 1A2 = target: T1, Cytochrome P450 1A2 (Homo sapiens, UniProt P05177); test: Inhibition of CYP1A2 in human liver microsome; type: ADME, microsomes
T1 sequence (P05177 whole entry): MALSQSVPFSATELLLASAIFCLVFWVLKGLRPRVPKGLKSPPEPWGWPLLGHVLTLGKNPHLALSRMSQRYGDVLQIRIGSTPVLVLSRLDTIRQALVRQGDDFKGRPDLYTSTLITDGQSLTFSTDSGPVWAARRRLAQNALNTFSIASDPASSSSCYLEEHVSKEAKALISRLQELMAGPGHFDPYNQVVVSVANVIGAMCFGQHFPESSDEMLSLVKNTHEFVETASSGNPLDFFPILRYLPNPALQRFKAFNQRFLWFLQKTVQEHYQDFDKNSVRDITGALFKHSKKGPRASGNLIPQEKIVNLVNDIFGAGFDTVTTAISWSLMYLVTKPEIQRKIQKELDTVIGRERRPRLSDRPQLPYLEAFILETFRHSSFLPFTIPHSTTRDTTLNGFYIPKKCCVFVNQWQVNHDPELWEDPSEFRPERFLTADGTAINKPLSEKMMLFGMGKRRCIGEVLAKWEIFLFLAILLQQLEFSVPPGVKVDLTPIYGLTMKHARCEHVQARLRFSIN

[4] = Tmax in male mouse at 20 mg/kg, po; type: ADME, organism-based; details: in vivo
[5] = Cytotoxicity in mouse L929 cells; type: toxicity, cell-based
[6] = AUC (0 to infinity) in male mouse at 5 mg/kg, iv; type: ADME, organism-based; details: in vivo
HepG2 = test: Effect on viral ssDNA level in human HepG2 cells expressing NTCP cells infected with HBV at 1 uM incubated for 6 days by Southern blot analysis; type: functional, cell-based; details: time 6.0 day
[7] = Plasma protein binding in human; type: ADME, cell-free; details: read-out: PPB (converted)

For `Nc1cc(F)c(S(=O)(=O)NC2COC2)cc1C(=O)Nc1ccc(F)c(C(F)F)c1`, the EC50 (Hepatitis B virus [1]) was 0.1 µM, the clearance [2] was 92.7 mL/min/kg and the Activity (Hepatitis B virus [3]) was 205%. For the same compound, the IC50 (Cytochrome P450 1A2) was > 100 µM, the Tmax [4] was 25.2 min and the IC50 [5] was > 100 µM. For the same compound, the AUC(0-inf) [6] was 900 ng·h/mL, the Activity (HepG2) was “No effect” and the fraction unbound [7] was 0.128.
